Measured values reported in the supplement of paper PMC3974653.
Counter-ions that a name gives are not always drawn.

Tested on: MTT (mouse pheochromocytoma)
Experiment: IC50 of cell viability (ATP content)
Details: (24 or 48 h)
In short: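 MTT mouse pheochromocytoma cells, cultured overnight at 37°C, 5% CO2 in DMEM with 5% FBS and 1% horse serum, were exposed in white 1536-well plates to library compounds in DMSO at final 0.5 nM to 46 µM (8 concentrations) for 24 or 48 hrs. CellTiter-Glo luminescence was normalised to positive-control (100%) and DMSO (0%) wells. A four-parameter logistic fit gave the IC50.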

SMILES	IC50 of cell viability
c1cc2ccc3cccc4ccc(c1)c2c34 [PYRENE]	> 46 µM
C=C/C=C/CC1=C(C)[C@@H](OC(=O)[C@@H]2[C@@H](/C=C(\C)C(=O)OC)C2(C)C)CC1=O.C=C/C=C/CC1=C(C)[C@@H](OC(=O)[C@@H]2[C@@H](C=C(C)C)C2(C)C)CC1=O [PYRETHRINS/Pestanal]	> 46 µM
CN(C)C(=O)Oc1ccc[n+](C)c1.[Br-] [PYRIDOSTIGMINE BROMIDE]	> 46 µM
Cc1ncc(CO)c(C=O)c1O [PYRIDOXAL HYDROCHLORIDE]	> 46 µM
Cc1ncc(COP(=O)(O)O)c(C=O)c1O [PYRIDOXAL PHOSPHATE]	> 46 µM
Cc1ncc(COP(=O)(O)O)c(CN)c1O [PYRIDOXAMINE PHOSPHATE]	> 46 µM
Cc1ncc(CSSCc2cnc(C)c(O)c2CO)c(CO)c1O [PYRITHIOXINE]	> 46 µM
CCC1(CC)C(=O)N\C=C/C1=O [PYRITHYLDIONE]	> 46 µM
O=C1CC[C@@H](C(=O)O)N1 [PYRROLIDONE CARBOXYLIC ACID]	> 46 µM
O=[N+]([O-])c1c(Cl)cccc1-c1c[nH]cc1Cl [PYRROLNITRIN]	> 46 µM
CCCCCCCCCCCCCCCC(=O)NCCO [Palmitoylethanolamide]	> 46 µM
NCCC(O)(P(=O)(O)O)P(=O)(O)O [Pamidronate disodium]	> 46 µM
COc1ccc(Cc2nccc3cc(OC)c(OC)cc23)cc1OC [Papaverine hydrochloride]	> 46 µM
C[C@@H]1C[C@H]2C3C[C@H](F)\C4=C\C(=O)\C=C/C4(C)C3[C@@H](O)CC2(C)[C@@]1(O)C(=O)COC(C)=O (some centres not stated) [Paramethasone acetate]	> 46 µM
CCC(=O)Nc1ccc(O)cc1 [Parapropamol]	> 46 µM
C#CCN(C)Cc1ccccc1 [Pargyline hydrochloride]	> 46 µM
C[C@H](/C=C/[C@H](C)C(C)(C)O)[C@H]1CC[C@H]2/C(=C/C=C3C[C@@H](O)C[C@H](O)C3)CCC[C@]12C [Paricalcitol]	> 46 µM
Fc1ccc(C2CCNCC2COc2ccc3c(c2)OCO3)cc1 (configuration not stated) [Paroxetine]	> 46 µM
Nc1ccc(C(=O)[O-])c(O)c1 [Pasiniazid]	> 46 µM
Nc1c(Cl)c(Cl)c(Cl)c(Cl)c1Cl [Pentachloroaniline]	> 46 µM
OCC1(CO)COC(C(Cl)(Cl)Cl)OC1 [Penthrichloral]	> 46 µM
OC[C@H]1O[C@@H](n2cnc3c2N=CNC[C@H]3O)C[C@@H]1O [Pentostatin]	> 46 µM
CC(=O)CCCCn1c(=O)c2c(ncn2C)n(C)c1=O [Pentoxifylline]	> 46 µM
FC(F)(F)C(F)(F)C(F)(F)C(F)(F)C(F)(F)C(F)(F)C(F)(F)C(F)(F)Br [Perflubron]	> 46 µM

SMILES	IC50 of cell viability
O=[S+]([O-])(O)C(F)(F)C(F)(F)C(F)(F)C(F)(F)C(F)(F)C(F)(F)C(F)(F)C(F)(F)F [Perfluorooctane sulfonic acid]	> 46 µM
CCCCCCCCCCCCCCCCCCOP(=O)([O-])OC1CC[N+](C)(C)CC1 [Perifosine]	> 46 µM
CCC[C@@H](N[C@@H](C)C(=O)N1[C@@H](C(=O)O)C[C@@H]2CCCC[C@@H]21)C(=O)OCC [Perindopril]	> 46 µM
OCCN1CCN(CCCN2c3ccccc3Sc3ccc(Cl)cc32)CC1 [Perphenazine]	> 46 µM
CN1CCN(C(=O)C2CCCCC2)CC1 [Pexantel]	> 46 µM
C=C(Nc1ccc(OCC)cc1)Nc1ccc(OCC)cc1 [Phenacaine hydrochloride]	> 46 µM
CCOc1ccc(NC(C)=O)cc1 [Phenacetin]	> 46 µM
CC1NCCOC1c1ccccc1 (configuration not stated) [Phenmetrazine Hydrochloride]	> 46 µM
Oc1ccccc1 [Phenol]	> 46 µM
c1ccc2c(c1)Nc1ccccc1S2 [Phenothiazine]	> 46 µM
O=C(O)COc1ccccc1 [Phenoxy acetic acid]	> 46 µM
CC(COc1ccccc1)N[NH3+] (configuration not stated) [Phenoxypropazine]	> 46 µM
NC(=O)OCCCc1ccccc1 [Phenprobamate]	> 46 µM
CN1C(=O)C[C@H](c2ccccc2)C1=O [Phensuximide]	> 46 µM
C[C@H](N)[C@@H](O)c1ccccc1 [Phenylpropanolamine hydrochloride]	> 46 µM
COP(=S)(OC)SCN1C(=O)c2ccccc2C1=O [Phosmet]	> 46 µM
O=C(O)CP(=O)(O)O [Phosphonoacetic acid]	> 46 µM
O=P(O)(O)OP(=O)(O)O [Phosphotex]	> 46 µM
CCOP(=S)(OCC)O/N=C(\C#N)c1ccccc1 [Phoxim]	> 46 µM
NCc1cccnc1 [Picolamina]	> 46 µM
OCc1ccccn1 [Piconol]	> 46 µM
C=C(C)[C@@H]1C2OC(=O)C1[C@]1(O)C[C@H]3O[C@]34C(=O)O[C@H]2[C@]14C.CC(C)(O)[C@@H]1C2OC(=O)[C@@H]1[C@]1(O)C[C@H]3O[C@]34C(=O)O[C@H]2[C@]14C [Picrotoxin]	> 46 µM
O=C1CC[C@@H](C(=O)N2CSC[C@H]2C(=O)O)N1 [Pidotimod]	> 46 µM

Other lines, results leading:

IC50 of cell viability	SMILES
> 46 µM	O=C(O)c1cccc(-c2noc(-c3ccccc3F)n2)c1 [PTC 124]
> 46 µM	CNC(=O)OCc1cccc(COC(=O)NC)n1 [PYRIDINOL CARBAMATE]
> 46 µM	CCCCC(CC)COC(=O)c1ccc(N(C)C)cc1 (configuration not stated) [Padimate O]
> 46 µM	CC(C)CCOC(=O)c1ccc(N(C)C)cc1 [Padimato]
> 46 µM	O=C(O)c1cc2ccccc2c(Cc2c(O)c(C(=O)O)cc3ccccc23)c1O [Pamoic acid]
> 46 µM	CCC(=O)[N-]S(=O)(=O)c1ccc(-c2c(-c3ccccc3)noc2C)cc1 [Parecoxib sodium]
> 46 µM	Cc1ccc(Nc2nccc(N(C)c3ccc4c(C)n(C)nc4c3)n2)cc1[S+](N)(=O)[O-] [Pazopanib]
> 46 µM	CN1CCCC(CN2c3ccccc3Sc3ccccc32)C1 (configuration not stated) [Pecazina]
> 46 µM	CC(C)(C)NC[C@@H](O)COc1ccccc1C1CCCC1 [Penbutolol sulfate]
> 46 µM	OC1(c2ccc(Cl)c(C(F)(F)F)c2)CCN(CCCC(c2ccc(F)cc2)c2ccc(F)cc2)CC1 [Penfluridol]
> 46 µM	CSCCC(NC(=O)C(Cc1c[nH]c2ccccc12)NC(=O)CCNC(=O)OC(C)(C)C)C(=O)NC(CC(=O)O)C(=O)NC(Cc1ccccc1)C(N)=O (configuration not stated) [Pentagastrin]
> 46 µM	O=C(O)CN(CCN(CC(=O)O)CC(=O)O)CCN(CC(=O)O)CC(=O)O [Pentetic acid]
> 46 µM	C[N+]1(CCCCC[N+]2(C)CCCC2)CCCC1.O=C([O-])[C@@H](O)[C@@H](O)C(=O)O.O=C([O-])[C@@H](O)[C@@H](O)C(=O)O [Pentolinium bitartrate]
> 46 µM	CN1CCN(CCCN2c3ccccc3Sc3ccccc32)CC1 [Perazine]
> 46 µM	CN1CCN(C2=Nc3ccccc3Cc3ccccc32)CC1 [Perlapine]
> 46 µM	CCOc1ccc(/N=C(\C)Nc2ccc(OCC)cc2)cc1 [Phenacaine hydrochloride]
> 46 µM	CN1N(C(=O)/C=C1/C)C2=CC=CC=C2 [Phenazone]
> 46 µM	[K+].C[C@H](OC1=CC=CC=C1)C(=O)N[C@H]2[C@@H]3SC(C)(C)[C@@H]([N@@]3C2=O)C([O-])=O [Phenethicillin potassium salt]
> 46 µM	N=C(N)NC(=N)NCCc1ccccc1.[Cl-].[H+] [Phenformin HCl]
> 46 µM	N=C(N)NC(=N)NCCc1ccccc1 [Phenformin hydrochloride]
> 46 µM	O=C1c2ccccc2C(=O)C1c1ccccc1 [Phenindione]
> 46 µM	C[NH+](C)CCC(c1ccccc1)c1cccc[nH+]1.O=C([O-])CC(=O)[O-] (configuration not stated) [Pheniramine maleate]
> 46 µM	O=C1OC(c2ccc(O)cc2)(c2ccc(O)cc2)c2ccccc21 [Phenolphthalein]
> 46 µM	CN(C)CCOc1ccccc1Cc1ccccc1.Nc1ccc(C(=O)O)c(O)c1 [Phentoloxamine and PAS]
> 46 µM	O=C(CCCCCCCCC#CI)Oc1ccccc1 [Phenyl 11-iodo-10-undecynoate]
> 46 µM	O=C(Oc1ccccc1)c1ccccc1O [Phenyl salicylate]
> 46 µM	CCCCC1C(=O)N(c2ccccc2)N(c2ccccc2)C1=O [Phenylbutazone]
> 46 µM	CC1=C(C/C=C(\C)CCCC(C)CCCC(C)CCCC(C)C)C(=O)c2ccccc2C1=O (configuration not stated) [Phytonadione]
> 46 µM	NNc1nnc(Cc2ccncc2)c2ccccc12 [Picodralazine]
> 46 µM	O=S(=O)([O-])Oc1ccc(C(c2ccc(OS(=O)(=O)[O-])cc2)c2ccccn2)cc1 [Picosulfate sodium]
